# Measured values: US20230146395A1, “Substituted Pyrimidines and Uses Thereof” (Verge Analytics, Inc., priority 2020, published 2023)
# Where a name gives a salt, the structure may show the parent alone.
# Target: T1, Full length human recombinant PIKFYVE (Homo sapiens, UniProt Q9Y2I7)
# T1 construct: Full length human recombinant PIKFYVE; purchased Carna Biosciences (Kobe, Japan); host or cells: baculovirus expression system
# Assay: Inhibition of PIKfyve (microfluidic electrophoresis kinase assay, PI3P/PS substrate)
# Type: biochemical
# Settings: 12 concentrations
# Method: Full length human recombinant PIKFYVE expressed in baculovirus expression system as N-terminal GST-fusion protein (265 kDa) was obtained from Carna Biosciences (Kobe, Japan). The kinase substrate was prepared by mixing and sonicating fluorescently-labeled phosphatidylinositol 3-phosphate (PI3P) with phospho-L-serine (PS) at a 1:10 ratio in 50 mM HEPES buffer pH 7.5.
# The kinase reactions were assembled in 384-well plates (Greiner) in a total volume of […] as follows. Kinase protein was pre-diluted in an assay buffer comprising 25 mM HEPES, pH 7.5, 1 mM DTT, 2.5 mM MgCl2, and 2.5 mM MnCl2, and 0.005% Triton X-100, and dispensed into a 384-well plate (10 μL per well). Test compounds were serially pre-diluted in DMSO and added to the protein samples by acoustic dispensing (Labcyte Echo). The concentration of DMSO was equalized to 1% in all samples. All test compounds were tested at 12 concentrations. Apilimod was used as a reference compound and was tested in identical manner in each assay plate. Control samples (0%-inhibition, in the absence of inhibitor, DMSO only) and 100%-inhibition (in the absence of enzyme) were assembled in replicates of four and were used to calculate %-inhibition in the presence of compounds. The reactions were initiated by addition of 10 μL of 2×PI3P/PS substrate supplemented with ATP. The final concentration of enzyme was 2 nM, the final concentration of ATP was […], and the final concentration of PI3P/PS substrate was 1 μM (PI3P). The kinase reactions were allowed to proceed for 3 h at room temperature. Following incubation, the reactions were quenched by addition of […] of termination buffer (100 mM HEPES, pH 7.5, 0.01% Triton X-100, 20 mM EDTA). Terminated plates were analyzed on a microfluidic electrophoresis instrument (Caliper LabChip® 3000, Caliper Life Sciences/Perkin Elmer). The change in the relative fluorescence intensity of the PI(3)P substrate and PI(3,5)P product peaks was measured. The activity in each test sample was determined as the product to sum ratio (PSR): P/(S+P), where P is the peak height of the product, and S is the peak height of the substrate. Percent inhibition (Pinh) was determined using the following equation:
# Pinh=(PSR0% inh−PSRcompound)/(PSR0% inh−PSR100% inh)*100
# in which PSRcompound is the product/sum ratio in the presence of compound, PSR0% inh is the product/sum ratio in the absence of compound, and the PSR100% inh is the product/sum ratio in the absence of the enzyme.
# T1 sequence (Q9Y2I7 whole entry): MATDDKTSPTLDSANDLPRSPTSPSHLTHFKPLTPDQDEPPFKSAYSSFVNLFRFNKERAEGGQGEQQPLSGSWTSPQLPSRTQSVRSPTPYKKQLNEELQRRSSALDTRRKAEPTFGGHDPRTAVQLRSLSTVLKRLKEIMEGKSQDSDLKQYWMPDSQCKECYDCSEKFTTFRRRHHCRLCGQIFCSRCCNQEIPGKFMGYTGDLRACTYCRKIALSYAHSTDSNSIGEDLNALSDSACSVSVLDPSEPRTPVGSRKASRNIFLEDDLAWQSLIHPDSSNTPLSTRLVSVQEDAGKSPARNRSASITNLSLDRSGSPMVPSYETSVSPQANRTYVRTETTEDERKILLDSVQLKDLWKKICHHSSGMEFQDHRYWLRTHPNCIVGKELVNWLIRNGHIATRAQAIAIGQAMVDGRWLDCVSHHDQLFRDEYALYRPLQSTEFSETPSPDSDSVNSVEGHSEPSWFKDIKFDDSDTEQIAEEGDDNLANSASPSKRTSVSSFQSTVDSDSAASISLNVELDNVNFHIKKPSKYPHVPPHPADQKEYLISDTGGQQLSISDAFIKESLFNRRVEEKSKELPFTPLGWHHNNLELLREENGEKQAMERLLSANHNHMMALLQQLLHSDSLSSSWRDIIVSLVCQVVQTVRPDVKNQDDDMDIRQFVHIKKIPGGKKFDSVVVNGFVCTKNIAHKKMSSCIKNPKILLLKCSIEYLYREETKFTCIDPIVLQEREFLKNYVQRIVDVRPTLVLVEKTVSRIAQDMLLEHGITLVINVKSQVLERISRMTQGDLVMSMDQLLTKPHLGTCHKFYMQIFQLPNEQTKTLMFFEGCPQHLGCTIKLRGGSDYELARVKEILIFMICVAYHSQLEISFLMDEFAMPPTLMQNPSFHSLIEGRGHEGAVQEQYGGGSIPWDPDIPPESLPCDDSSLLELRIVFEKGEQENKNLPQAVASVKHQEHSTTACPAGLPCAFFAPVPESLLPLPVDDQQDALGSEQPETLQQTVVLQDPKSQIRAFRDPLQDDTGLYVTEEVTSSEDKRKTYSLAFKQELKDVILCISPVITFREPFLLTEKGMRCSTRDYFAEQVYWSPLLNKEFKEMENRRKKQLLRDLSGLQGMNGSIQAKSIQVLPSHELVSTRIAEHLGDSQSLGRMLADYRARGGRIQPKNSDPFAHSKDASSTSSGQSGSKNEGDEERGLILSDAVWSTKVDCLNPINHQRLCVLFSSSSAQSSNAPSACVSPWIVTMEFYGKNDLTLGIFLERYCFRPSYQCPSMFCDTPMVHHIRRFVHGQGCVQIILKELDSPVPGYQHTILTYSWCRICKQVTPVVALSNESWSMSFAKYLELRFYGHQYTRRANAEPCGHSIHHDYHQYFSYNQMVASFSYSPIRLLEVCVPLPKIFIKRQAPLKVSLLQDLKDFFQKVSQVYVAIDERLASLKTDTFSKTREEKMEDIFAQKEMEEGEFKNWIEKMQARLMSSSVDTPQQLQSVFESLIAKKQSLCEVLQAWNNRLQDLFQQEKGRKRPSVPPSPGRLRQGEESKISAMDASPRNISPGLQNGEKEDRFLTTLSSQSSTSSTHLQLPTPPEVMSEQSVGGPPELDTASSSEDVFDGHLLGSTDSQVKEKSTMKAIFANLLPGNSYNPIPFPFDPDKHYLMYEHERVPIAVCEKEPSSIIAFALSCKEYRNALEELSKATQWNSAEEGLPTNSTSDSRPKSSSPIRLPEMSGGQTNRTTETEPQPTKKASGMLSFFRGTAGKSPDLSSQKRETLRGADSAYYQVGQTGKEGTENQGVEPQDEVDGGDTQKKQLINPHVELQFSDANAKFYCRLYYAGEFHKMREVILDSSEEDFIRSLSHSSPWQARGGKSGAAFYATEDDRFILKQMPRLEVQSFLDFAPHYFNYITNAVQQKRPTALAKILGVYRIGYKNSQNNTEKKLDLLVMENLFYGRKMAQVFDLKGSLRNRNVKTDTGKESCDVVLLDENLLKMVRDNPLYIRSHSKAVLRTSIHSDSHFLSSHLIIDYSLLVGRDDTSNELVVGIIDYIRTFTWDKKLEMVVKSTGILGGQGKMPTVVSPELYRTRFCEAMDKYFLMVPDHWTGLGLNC
row,SMILES,IC50 [µM]
1,"c1ccc(-c2ccn(-c3nc(N4CCOCC4)c4oc(-c5ncco5)cc4n3)n2)cc1 [Compound 214, 4-morpholino-6-oxazol-2-yl-2-(3-phenylpyrazol-1-yl)furo[3,2-d]pyrimidine]",0.0441
2,c1cc(-c2cc3nc(Nc4cc(CC5CCC5)n[nH]4)nc(N4CCOCC4)c3o2)ccn1 [Compound 71],0.0798
3,"[2H]C([2H])([2H])c1cccc(-c2cnn(-c3nc(N4CCOCC4)c4oc(-c5ccn(C)n5)cc4n3)c2)c1 [Compound 215, 6-(1-methylpyrazol-3-yl)-4-morpholino-2-[4-[3-(trideuteriomethyl)phenyl]pyrazol-1-yl]furo[3,2-d]pyrimidine]",0.0002
4,"CNC(=O)c1cc2nc(Nc3cc(-c4ccsc4)n[nH]3)nc(N3CCOCC3)c2o1 [Compound 86, N-methyl-4-morpholino-2-((5-(thiophen-3-yl)-1H-pyrazol-3-yl)amino)furo[3,2-d]pyrimidine-6-carboxamide, hydrogen chloride]",0.061
5,"c1ccc(-c2cc3nc(Nc4cc(-c5ccncc5)n[nH]4)nc(N4CCOCC4)c3o2)nc1 [Compound 28, 4-morpholino-6-(pyridin-2-yl)-N-(3-(pyridin-4-yl)-1H-pyrazol-5-yl) furo[3,2-d] pyrimidin-2-aminehydrochloride]",0.677
6,CN(C)CCCCNC(=O)c1cc2nc(-n3cc(-c4ccccc4)cn3)nc(N3CCOCC3)c2o1 [Compound 167],0.122
7,"c1cc(-c2cc(Nc3nc(N4CCOCC4)c4occc4n3)[nH]n2)ccn1 [Compound 10, 4-morpholino-N-(3-(pyridin-4-yl)-1H-pyrazol-5-yl)furo[3,2-d]pyrimidin-2-amine hydrochloride]",6.22
8,"CON(C)C(=O)c1cc2nc(Nc3cc(-c4ccccc4)[nH]n3)nc(N3CCOCC3)c2o1 [Compound 139, N-methoxy-N-methyl-4-morpholino-2-((5-phenyl-1H-pyrazol-3-yl)amino)furo[3,2-d]pyrimidine-6-carboxamide]",0.022
9,"C=CC(=O)NCCn1nc(-c2cc3nc(-n4cc(-c5cccc(C)c5)cn4)nc(N4CCOCC4)c3o2)cc1C [Compound 196, N-[2-[5-methyl-3-[4-morpholino-2-[4-(m-tolyl)pyrazol-1-yl]furo[3,2-d]pyrimidin-6-yl]pyrazol-1-yl]ethyl]prop-2-enamide]",0.0009
10,"Cc1ccnc(-c2cc(Nc3nc(N4CCOCC4)c4oc(-c5ccncc5)cc4n3)[nH]n2)c1 [Compound 21, N-[5-(4-methyl-2-pyridyl)-1H-pyrazol-3-yl]-4-morpholino-6-(4-pyridyl)fnro[3,2-d]pyrimidin-2-amine, hydrogen chloride]",0.027
11,"O=C(NC1COC1)c1cc2nc(-n3ccc(-c4ccccc4)n3)nc(N3CCOCC3)c2o1 [Compound 175, 4-morpholino-N-(oxetan-3-yl)-2-(3-phenylpyrazol-1-yl)furo[3,2-d]pyrimidine-6-carboxamide]",4.01
12,"c1ccc(-c2ccn(-c3nc(N4CCOCC4)c4oc(-c5cccnc5)cc4n3)n2)cc1 [Compound 156, 4-morpholino-2-(3-phenyl-1H-pyrazol-1-yl)-6-(pyridin-3-yl)furo[3,2-d]pyrimidine]",0.152
13,"O=C(NCC1COC1)c1cc2nc(-n3ccc(-c4ccccc4)n3)nc(N3CCOCC3)c2o1 [Compound 159, 4-morpholino-N-(oxetan-3-ylmethyl)-2-(3-phenylpyrazol-1-yl)furo[3,2-d]pyrimidine-6-carboxamide]",0.943
14,"Cc1cc(-c2cc3nc(-n4ccc(-c5ccccc5)n4)nc(N4CCOCC4)c3o2)sn1 [Compound 211, 6-(3-methylisothiazol-5-yl)-4-morpholino-2-(3-phenylpyrazol-1-yl)furo[3,2-d]pyrimidine]",0.0208
15,"Cc1cncc(-c2ccn(-c3nc(N4CCOCC4)c4oc(-c5ccccn5)cc4n3)n2)c1 [Compound 200, 2-[3-(5-methyl-3-pyridyl)pyrazol-1-yl]-4-morpholino-6-(2-pyridyl)furo[3,2-d]pyrimidine]",3.08
16,"O=C(NCC1CC1)c1cc2nc(Nc3cc(-c4ccccc4)[nH]n3)nc(N3CCOCC3)c2o1 [Compound 61, N-(cyclopropylmethyl)-4-morpholino-2-[(5-phenyl-1H-pyrazol-3-yl)amino]furo[3,2-d]pyrimidine-6-carboxamide, hydrogen chloride]",0.0025
17,O=C(NC1CC1)c1cc2nc(Nc3cc(-c4ccccc4)[nH]n3)nc(N3CCOCC3)c2o1 [Compound 59],0.0043
18,"c1ccn2nc(Nc3nc(N4CCOCC4)c4oc(-c5ccncc5)cc4n3)cc2c1 [Compound 51, 4-morpholino-N-pyrazolo[1,5-a]pyridin-2-yl-6-(4-pyridyl)furo[3,2-d]pyrimidin-2-amine, hydrogen chloride]",0.088
19,"Cc1cncc(-c2cc(Nc3nc(N4CCOCC4)c4oc(-c5ccncc5)cc4n3)[nH]n2)c1 [Compound 23, N-[5-(5-methyl-3-pyridyl)-1H-pyrazol-3-yl]-4-morpholino-6-(4-pyridyl)furo[3,2-d]pyrimidin-2-amine, hydrogen chloride]",0.195
20,CN1CCC(c2cc3nc(Nc4cc(-c5ccncc5)n[nH]4)nc(N4CCOCC4)c3o2)C1 (centres unmarked) [Compound 40],2.57
21,"COCCNC(=O)c1cc2nc(-n3cc(-c4ccccc4)cn3)nc(N3CCOCC3)c2o1 [Compound 118, N-(2-methoxyethyl)-4-morpholino-2-(4-phenyl-1H-pyrazol-1-yl)furo[3,2-d]pyrimidine-6-carboxamide]",0.311
22,"c1ccc2c(Nc3nc(N4CCOCC4)c4oc(-c5ccncc5)cc4n3)n[nH]c2c1 [Compound 50, N-(1H-indazol-3-yl)-4-morpholino-6-(pyridin-4-yl)furo[3,2-d]pyrimidin-2-amine hydrochloride]",0.835
23,Cc1cccc(-c2ccn(-c3nc(N4CCOCC4=O)c4oc(-c5ccccn5)cc4n3)n2)c1 [Compound 148],3.86
24,"CN1CCN(C(=O)c2cc3nc(Nc4cc(-c5ccccc5)[nH]n4)nc(N4CCOCC4)c3o2)CC1 [Compound 136, (4-methylpiperazin-1-yl)(4-morpholino-2-((5-phenyl-1H-pyrazol-3-yl)amino)furo[3,2-d]pyrimidin-6-yl)methanone]",0.094
25,"c1ccc(-c2ccn(-c3nc(N4CCOCC4)c4oc(-c5nccs5)cc4n3)n2)cc1 [Compound 207, 4-morpholino-2-(3-phenylpyrazol-1-yl)-6-thiazol-2-yl-furo[3,2-d]pyrimidine]",0.0066
26,"CN(CC1CC1)C(=O)c1cc2nc(Nc3cc(-c4ccccc4)[nH]n3)nc(N3CCOCC3)c2o1 [Compound 62, N-(cyclopropylmethyl)-N-methyl-4-morpholino-2-[(5-phenyl-1H-pyrazol-3-yl)amino]furo[3,2-d]pyrimidine-6-carboxamide, hydrogen chloride]",0.073
27,"FC(F)(F)Oc1cccc(-c2cc(Nc3nc(N4CCOCC4)c4oc(-c5ccncc5)cc4n3)[nH]n2)c1 [Compound 25, 4-morpholino-6-(4-pyridyl)-N-[5-[3-(trifluoromethoxy)phenyl]-1H-pyrazol-3-yl]furo[3,2-d]pyrimidin-2-amine, hydrogen chloride]",0.956
28,"Cc1cccc(-c2ccn(-c3nc(N4CCOCC4)c4oc(-c5nccs5)cc4n3)n2)c1 [Compound 203, 4-morpholino-2-[3-(m-tolyl)pyrazol-1-yl]-6-thiazol-2-yl-furo[3,2-d]pyrimidine]",0.0019
29,Cc1cccc(-c2cc(Nc3nc(N4CCOCC4)c4oc(C5CCCN(C)C5)cc4n3)[nH]n2)c1 (centres unmarked) [Compound 36],0.037
